Test results from patent publication US9751854B2 (Millennium Pharmaceuticals, Inc., priority 2014, dated 2017).

Biological target: human VPS34 (Homo sapiens (Human), UniProt Q8NEB9)
Assay: Human VPS34 enzyme assay (Adapta TR-FRET ADP detection)
Assay type: biochemical
Parameters: Percent Inhibition: dose or concentration left out as unconfirmed
Conditions: for IC50: IC50 range class

Sequence of human VPS34 (Q8NEB9 whole entry): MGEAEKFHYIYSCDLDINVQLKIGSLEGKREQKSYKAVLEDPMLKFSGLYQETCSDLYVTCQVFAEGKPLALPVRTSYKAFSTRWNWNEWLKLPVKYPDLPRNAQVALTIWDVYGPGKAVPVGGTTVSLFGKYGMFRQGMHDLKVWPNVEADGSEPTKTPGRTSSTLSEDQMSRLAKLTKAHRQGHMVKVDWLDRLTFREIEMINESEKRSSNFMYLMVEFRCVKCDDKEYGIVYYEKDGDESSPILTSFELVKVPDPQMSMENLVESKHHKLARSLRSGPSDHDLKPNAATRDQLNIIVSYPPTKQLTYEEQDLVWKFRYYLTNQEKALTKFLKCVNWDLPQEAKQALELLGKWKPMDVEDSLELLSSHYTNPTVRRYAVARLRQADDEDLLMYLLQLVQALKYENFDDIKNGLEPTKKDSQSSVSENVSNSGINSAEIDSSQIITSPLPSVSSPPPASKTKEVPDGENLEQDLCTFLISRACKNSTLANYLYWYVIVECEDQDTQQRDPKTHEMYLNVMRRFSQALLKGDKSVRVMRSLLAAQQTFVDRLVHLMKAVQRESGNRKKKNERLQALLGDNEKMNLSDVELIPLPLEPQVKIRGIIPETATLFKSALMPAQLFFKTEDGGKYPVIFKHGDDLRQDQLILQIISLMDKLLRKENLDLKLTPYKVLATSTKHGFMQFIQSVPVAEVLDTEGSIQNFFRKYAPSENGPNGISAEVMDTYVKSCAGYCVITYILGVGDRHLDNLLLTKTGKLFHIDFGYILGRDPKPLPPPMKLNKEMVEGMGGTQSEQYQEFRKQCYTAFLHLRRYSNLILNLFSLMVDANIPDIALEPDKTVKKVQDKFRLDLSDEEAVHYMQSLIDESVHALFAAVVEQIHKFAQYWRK

Structure (SMILES)	IC50 [nM]	Percent Inhibition [%]
CC(=O)Nc1cc(-c2cncc(S(=O)(=O)N3CC(F)(F)C3)c2)ccn1 [Compound I-391, N-{5-[(3,3-difluoroazetidin-1-yl)sulfonyl]-3,4′-bipyridin-2′-yl}acetamide]	10 to 50	
CNc1ncc(-c2ccnc(NC(C)=O)c2)cc1N1CCCS1(=O)=O [Compound I-132, N-[5-(1,1-dioxidoisothiazolidin-2-yl)-6-(methylamino)-3,4′-bipyridin-2′-yl]acetamide]	< 10	
CC(=O)Nc1cc(-c2cnc(Cl)c(NS(=O)(=O)c3ccc(F)cc3Cl)c2C)ccn1 [Compound I-290, N-(6-chloro-5-{[(2-chloro-4-fluorophenyl)sulfonyl]amino}-4-methyl-3,4′-bipyridin-2′-yl)acetamide]	10 to 50	
COc1ncc(-c2ccnc(NC(C)=O)c2)cc1N(C)C(=O)c1ccc(F)cc1F [Compound I-331, N-(2′-acetamido-6-methoxy-3,4′-bipyridin-5-yl)-2,4-difluoro-N-methylbenzamide]	> 100	
CC(=O)Nc1cc(-c2cnc(N)c(S(=O)(=O)N(C)C)c2)c(F)cn1 [Compound I-186]	10 to 50	
CC(=O)Nc1cc(-c2cnc(C)c(NS(=O)(=O)N3CCN(C)CC3)c2)ccn1 [Compound I-269, N-(6-methyl-5-{[(4-methylpiperazin-1-yl)sulfonyl]amino}-3,4′-bipyridin-2′-yl)acetamide]	10 to 50	
CC(=O)Nc1cc(-c2cnc3c(c2)S(=O)(=O)N(C)CN3)ccn1 [Compound I-21, N-[4-(2-methyl-1,1-dioxido-3,4-dihydro-2H-pyrido[2,3-e][1,2,4]thiadiazin-7-yl)pyridin-2-yl]acetamide]	10 to 50	
CC(=O)Nc1cc(-c2cncc(S(=O)(=O)NC3CCC3)c2)ccn1 [Compound I-396, N-[5-(cyclobutylsulfamoyl)-3,4′-bipyridin-2′-yl]acetamide]	10 to 50	
CC(=O)Nc1cc(-c2cnc(C)c(N3CCCN(C)S3(=O)=O)c2)ccn1 [Compound I-343]	10 to 50	
Cc1nccc(Nc2cc(-c3cnc(Cl)c(NC(=O)c4ccc(F)cc4F)c3C)ccn2)n1 [Compound I-295, N-{6-chloro-4-methyl-2′-[(2-methylpyrimidin-4-yl)amino]-3,4′-bipyridin-5-yl}-2,4-difluorobenzamide]	50 to 100	
CC(=O)Nc1cc(-c2cnc(C)c(NS(=O)(=O)c3cccnc3)c2)ccn1 [Compound I-45, N-{6-methyl-5-[(pyridin-3-ylsulfonyl)amino]-3,4′-bipyridin-2′-yl}acetamide]	< 10	
CC(=O)Nc1cc(-c2cnc(N)c(S(=O)(=O)NC34CC(C3)C4)c2)ccn1 [Compound I-11, N-[6-amino-5-(bicyclo[1.1.1]pent-1-ylsulfamoyl)-3,4′-bipyridin-2′-yl]acetamide]	< 10	
Cc1ncc(-c2ccnc(Nc3ccnc(C4CC4)n3)c2)cc1NC(=O)N1CC(F)(F)C1 [Compound I-368, N-(2′-((2-cyclopropylpyrimidin-4-yl)amino)-6-methyl-[3,4′-bipyridin]-5-yl)-3,3-difluoroazetidine-1-carboxamide]	10 to 50	
CC(=O)Nc1cc(-c2cnc(N)c(C(=O)NC3CC3)c2)ccn1 [Compound I-169, 2′-acetamido-6-amino-N-cyclopropyl-3,4′-bipyridine-5-carboxamide]	10 to 50	
CC(=O)Nc1cc(-c2cnc(Cl)c(NS(=O)(=O)c3cn(C)nc3C(F)(F)F)c2C)ccn1 [Compound I-493, N-[6-chloro-4-methyl-5-({[1-methyl-3-(trifluoromethyl)-1H-pyrazol-4-yl]sulfonyl}amino)-3,4′-bipyridin-2′-yl]acetamide]	10 to 50	99
CCOC(=O)Nc1cc(-c2cnc(Cl)c(NS(=O)(=O)c3ccc(F)cc3F)c2C)ccn1 [Compound I-383, ethyl (6-chloro-5-{[(2,4-difluorophenyl)sulfonyl]amino}-4-methyl-3,4′-bipyridin-2′-yl)carbamate]	10 to 50	
COC(=O)Nc1cc(-c2cnc(N)c(S(=O)(=O)N3CCCC3)c2)ccn1 [Compound I-36, methyl [6-amino-5-(pyrrolidin-1-ylsulfonyl)-3,4′-bipyridin-2′-yl]carbamate]	< 10	
COc1cc(F)ccc1S(=O)(=O)Nc1cc(-c2ccnc(NC(C)=O)c2)cnc1C [Compound I-58, N-(5-{[(4-fluoro-2-methoxyphenyl)sulfonyl]amino}-6-methyl-3,4′-bipyridin-2′-yl)acetamide]	< 10	
Cc1c(-c2ccnc(Nc3ccnc(C4CC4)n3)c2)cnc(Cl)c1C(=O)N1CC(C)(C)C1 [Compound I-466, (6-chloro-2′-[(2-cyclopropylpyrimidin-4-yl)amino]-4-methyl-3,4′-bipyridin-5-yl](3,3-dimethylazetidin-1-yl)methanone]	10 to 50	
CC(=O)Nc1cc(-c2cncc(S(=O)(=O)N(C)c3ccccc3)c2)ccn1 [Compound I-365, N-{5-[methyl(phenyl)sulfamoyl]-3,4′-bipyridin-2′-yl}acetamide]	10 to 50	
CC(=O)Nc1cc(-c2cnc(Cl)c(NS(=O)(=O)c3ccc(F)cc3F)c2C)c(C)cn1 [Compound I-250, N-(6-chloro-5-{[(2,4-difluorophenyl)sulfonyl]amino}-4,5′-dimethyl 3,4′-bipyridin-2′-yl)acetamide]	10 to 50	
CC(=O)Nc1cc(-c2cnc(C)c(NS(=O)(=O)c3cccc(C)c3F)c2)ccn1 [Compound I-339, N-(5-{[(2-fluoro-3-methylphenyl)sulfonyl]amino}-6-methyl-3,4′-bipyridin-2′-yl)acetamide]	10 to 50	
Cc1c(-c2ccnc(Nc3ncc(C#N)cn3)c2)cnc(Cl)c1NS(=O)(=O)c1ccc(F)cc1F [Compound I-300, N-{6-chloro-2′-[(5-cyanopyrimidin-2-yl)amino]-4-methyl-3,4′-bipyridin-5-yl}-2,4-difluorobenzenesulfonamide]	10 to 50	
CC(=O)Nc1cc(-c2cnc(C)c(NS(=O)(=O)c3ccc(C#N)cc3F)c2)ccn1 [Compound I-356, N-(5-{[(4-cyano-2-fluorophenyl)sulfonyl]amino}-6-methyl-3,4′-bipyridin-2′-yl)acetamide]	< 10	
CC(=O)Nc1cc(-c2cnc(Cl)c(NS(=O)(=O)c3ccc(C#N)cc3Cl)c2C)ccn1 [Compound I-362, N-(6-chloro-5-{[(2-chloro-4-cyanophenyl)sulfonyl]amino}-4-methyl-3,4′-bipyridin-2′-yl)acetamide]	10 to 50	
CNc1ncc(-c2ccnc(NC(C)=O)c2)cc1N(CC1CC1)S(C)(=O)=O [Compound I-141]	< 10	
CC(=O)Nc1cc(-c2cnc(N)c(S(=O)(=O)Cc3ccccc3F)c2)ccn1 [Compound I-197, N-{6-amino-5-[(2-fluorobenzyl)sulfonyl]-3,4′-bipyridin-2′-yl]acetamide]	10 to 50	
CC(=O)Nc1cc(-c2cnc(N)c(S(=O)(=O)N3CCCC3)c2)ccn1 [Compound I-87, N-[6-amino-5-(pyrrolidin-1-ylsulfonyl)-3,4′-bipyridin-2′-yl]acetamide]	< 10	
CNc1ncc(-c2ccnc(NC(C)=O)c2)cc1S(=O)(=O)N(C(C)C)C(C)C [Compound I-173, N-[5-(diisopropylsulfamoyl)-6-(methylamino)-3,4′-bipyridin-2′-yl]acetamide]	< 10	
